Experimental data published in patent US10294202B2, “Pyrrolidinones as herbicides” (FMC Corporation, priority 2013, dated 2019).

Assays:
blackgrass = assay: Test A postemergence herbicide test; format: in vivo, Alopecurus myosuroides
How it was run: (§1)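 Ratings compare treated with untreated plants roughly 10 days after a postemergence application made at the one- to two-leaf stage. Scoring uses 0–100, where 0 means no effect and 100 complete control.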

kochia [1] = assay: Test C pre-/postemergence herbicide test; format: in vivo, Kochia scoparia
How it was run: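 Greenhouse pots; formulation = non-phytotoxic solvent mix + surfactant. PRE onto seeds in loam:sand; POST at 1–4 leaves (2–18 cm) in peat moss/vermiculite medium. Read-out: visual % control vs untreated, day 13–15.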

galium = assay: Test A postemergence herbicide test; format: in vivo, Galium aparine
How it was run: as §1

ragweed = assay: Test A pre-/postemergence herbicide test; format: in vivo, Ambrosia elatior
How it was run: (§2)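 Greenhouse pot test with pre- and postemergence application of surfactant-containing solvent formulations. Postemergence plants were 2–10 cm, one- to two-leaf stage. Response scored visually after ~10 days, 0 (no effect) to 100 (complete control).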

ryegrass, Italian = assay: Test A pre-/postemergence herbicide test; format: in vivo, Lolium multiflorum
How it was run: as §2

kochia [2] = assay: Test A pre-/postemergence herbicide test; format: in vivo, Kochia scoparia
How it was run: as §2

velvetleaf = assay: Test A pre-/postemergence herbicide test; format: in vivo, Abutilon theophrasti
How it was run: as §2

[3] = 125 g ai/ha, 0 to 100 scale, 0 is no effect, 100 is complete control
[4] = 500 g ai/ha, 0 to 100 scale (0 no effect, 100 complete control)
[5] = Postemergence, 31 g ai/ha, scale 0 to 100 (0 no effect, 100 complete control)
[6] = Postemergence, 62 g ai/ha, scale 0 (no effect) to 100 (complete control)
[7] = Postemergence, 125 g ai/ha, scale 0 to 100 (0 no effect, 100 complete control)
[8] = Postemergence, 250 g ai/ha, scale 0 to 100 (0 no effect, 100 complete control)
[9] = Postemergence, 125 g ai/ha, visual rating on 0 to 100 scale (0 no effect, 100 complete control), approx. 10 days
[10] = Postemergence, 500 g ai/ha, 0 to 100 scale (0 no effect, 100 complete control)
[11] = Preemergence, 125 g ai/ha, 0 to 100 scale where 0 is no effect and 100 is complete control
[12] = preemergence, 500 g ai/ha, 0 to 100 scale, 0 is no effect and 100 is complete control
[13] = Postemergence, 125 g ai/ha, 0 to 100 scale, 0 is no effect, 100 is complete control
[14] = 125 g ai/ha, visual rating on 0 to 100 scale (0 no effect, 100 complete control), approx. 10 days
[15] = Preemergence, 500 g ai/ha, visual rating on 0 to 100 scale (0 no effect, 100 complete control)

SMILES | Plant response rating, Blackgrass (blackgrass; [3]) | Plant response rating, Blackgrass (blackgrass; [4]) | Plant response rating, Kochia (kochia [1]; [5]) | Plant response rating, Kochia (kochia [1]; [6]) | Plant response rating, Kochia (kochia [1]; [7]) | Plant response rating, Kochia (kochia [1]; [8]) | Plant response rating, Galium (galium; [3]) | Plant response rating, Galium (galium; [4]) | Plant response rating, Ragweed (ragweed; [9]) | Plant response rating, Ragweed (ragweed; [10]) | Plant response rating, Ragweed (ragweed; [11]) | Plant response rating, Ragweed (ragweed; [12]) | Plant response rating, Ryegrass, Italian (ryegrass, Italian; [9]) | Plant response rating, Ryegrass, Italian (ryegrass, Italian; [10]) | Plant response rating, Ryegrass, Italian (ryegrass, Italian; [11]) | Plant response rating, Ryegrass, Italian (ryegrass, Italian; [12]) | Plant response rating, Kochia (kochia [2]; [13]) | Plant response rating, Kochia (kochia [2]; [10]) | Plant response rating, Kochia (kochia [2]; [11]) | Plant response rating, Kochia (kochia [2]; [12]) | also measured
O=C1NCC(c2cc(F)cc(F)c2)C1C(=O)Nc1ccc(F)cc1F (racemic) [Compound 278] | 30 | 60 | 0 | 0 | 0 | 5 | 40 | 50 | 0 | 0 | 0 | 0 | 0 | 0 | 0 | 0 | 0 | 0 | 0 | 0 | 
O=C1NCC(c2cc(F)cc(F)c2)C1C(=O)Nc1cccc(F)c1F (racemic) [Compound 279] | 60 | 70 | 0 | 30 | 85 | 35 | 40 | 50 | 0 | 0 | 0 | 0 | 0 | 0 | 0 | 60 | 0 | 40 | 40 | 80 | 
O=C1NCC(c2cccc(OC(F)(F)F)c2)C1C(=O)Nc1cccc(F)c1F (stereo not shown) [Compound 68] |  |  |  |  |  |  |  |  |  |  |  |  |  |  |  |  |  |  |  |  | Kochia plant response rating (kochia [1]; Preemergence, 31 g ai/ha, scale 0 to 100, 0 is no effect and 100 is complete control): 0; Plant response rating, Kochia (kochia [1]; Preemergence, 62 g ai/ha, scale 0 to 100): 0; Plant response rating, Kochia (kochia [1]; Preemergence, 125 g ai/ha, scale 0 to 100 (0 no effect, 100 complete control)): 0; Plant response rating, Velvetleaf (velvetleaf; Postemergence, 125 g ai/ha, 0 to 100 scale, 0 no effect, 100 complete control): 20; Plant response rating, Velvetleaf (velvetleaf; [10]): 20; Velvetleaf plant response rating (velvetleaf; Preemergence, 125 g ai/ha, visual rating on 0 to 100 scale (0 no effect, 100 complete control)): 0; Plant response rating, Velvetleaf (velvetleaf; preemergence, 500 g ai/ha, 0 to 100 scale): 0
CN1CC(c2ccc(F)c(F)c2)C(C(=O)Nc2ccccc2F)C1=O (stereo not shown) [Compound 302] |  | 60 | 0 | 0 | 0 | 60 |  | 60 | 0 | 0 | 0 |  | 0 | 60 | 0 |  |  | 60 | 50 |  | Plant response rating, Blackgrass (blackgrass; [14]): 40; Plant response rating, Galium (galium; [14]): 60; Ragweed plant response rating (ragweed; [15]): 30; Ryegrass, Italian plant response rating (ryegrass, Italian; [15]): 60; Plant response rating, Kochia (kochia [2]; [9]): 10; Kochia plant response rating (kochia [2]; [15]): 70
O=C1NCC(c2cccc(Br)c2)C1C(=O)Nc1cccc(F)c1F (stereo not shown) [Compound 309] |  | 70 | 5 | 5 |  | 75 |  | 70 | 0 | 0 | 0 |  | 10 | 30 | 0 |  |  | 0 | 0 |  | Plant response rating, Blackgrass (blackgrass; [14]): 60; Plant response rating, Galium (galium; [14]): 60; Ryegrass, Italian plant response rating (ryegrass, Italian; [15]): 20; Plant response rating, Kochia (kochia [2]; [9]): 0; Kochia plant response rating (kochia [2]; [15]): 0
